The values that follow come from paper PMC5371824, “Phosphatidylinositol (4,5)-bisphosphate dynamically regulates the K2P background K^+ channel TASK-2” (Scientific Reports, 2017).

Format in all cases: biochemical
Holding throughout (design): key to MTSET effect: ✓ under “MTSET effect” indicates a significant increase in current after treatment with the methanesulfonate reagent; — in all cases stands for no significant effect

In assay [1] the target is T1, TASK-2-R4C (Mus musculus, UniProt F6V9U5, R4C).
T1 construct: expressed in transfected cells; host or cells: HEK-293
T1 sequence (F6V9U5 1-502 R4C): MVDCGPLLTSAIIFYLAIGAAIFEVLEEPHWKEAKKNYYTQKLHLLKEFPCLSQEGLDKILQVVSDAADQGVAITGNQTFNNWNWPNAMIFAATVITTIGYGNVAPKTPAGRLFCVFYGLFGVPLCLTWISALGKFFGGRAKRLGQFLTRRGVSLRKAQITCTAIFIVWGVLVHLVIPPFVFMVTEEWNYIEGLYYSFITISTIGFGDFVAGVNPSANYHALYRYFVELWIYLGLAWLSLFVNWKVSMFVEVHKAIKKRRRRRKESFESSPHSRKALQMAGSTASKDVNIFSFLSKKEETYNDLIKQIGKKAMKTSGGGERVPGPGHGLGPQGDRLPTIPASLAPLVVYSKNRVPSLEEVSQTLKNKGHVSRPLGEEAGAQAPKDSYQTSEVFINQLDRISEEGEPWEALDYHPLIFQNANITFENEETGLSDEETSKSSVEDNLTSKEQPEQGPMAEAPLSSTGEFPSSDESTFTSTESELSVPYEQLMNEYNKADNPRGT
Nature of the assay: Excised inside-out patch recording, TASK-2-R4C mutant. The procedure: (§1) Figure 6 Scanning of potential sites of interaction of TASK-2 with PI(4,5)P2 by cysteine mutagenesis of intracellular basic residues. (A) Schematic representation of TASK-2 topology showing the sequences of segments of the protein predicted to be intracellular or intracellular-facing. Basic residues are highlighted in red. (B) Recording from an excised inside-out patch of membrane taken from a HEK-293 cell over-expressing TASK-2. The patch was held at −60 mV in the presence of 1 mM ATP. At the intervals indicated by the boxes the intracellular aspect of the membrane was exposed to 300 μM Neomycin and then to 100 μM TPeA. At the end of the TPeA period the patch was additionally exposed to 1 mM MTSET as shown by the black box. (C and D) experiments as in (B), but with inside-out membrane patches obtained from cells expressing the mutants TASK-2-H327C and TASK-2-K297C respectively. In D the reducing agent DTT was also added at 2 mM. (E) Summary of experiments comparing the current before and after treatment with MTSET. […]
(§2) Recordings in the inside-out isolated patch configuration were performed in the gap-free mode at −60 mV. […] Traces shown are prints from crude Clampfit screen shots and quantification was done using the average currents were calculated at intervals using Clampfit after baseline adjustment.

Assay [2] has as its target T2, TASK-2-K254C (Mus musculus, UniProt F6V9U5, K254C).
T2 construct: expressed in transfected cells; host or cells: HEK-293
T2 sequence (F6V9U5 1-502 K254C): T1 sequence (F6V9U5 1-502 R4C) with C4R, K254C
The assay is described as follows: Excised inside-out patch recording, TASK-2-K254C mutant. The protocol:
as §1, §2

Assay [3] has as its target T3, TASK-2-K297C (Mus musculus, UniProt F6V9U5, K297C).
T3 construct: expressed in transfected cells; host or cells: HEK-293
T3 sequence (F6V9U5 1-502 K297C): T1 sequence (F6V9U5 1-502 R4C) with C4R, K297C
The assay is described as follows: Excised inside-out patch recording, TASK-2-K297C mutant. The procedure:
Figure 6 Scanning of potential sites of interaction of TASK-2 with PI(4,5)P2 by cysteine mutagenesis of intracellular basic residues. (A) Schematic representation of TASK-2 topology showing the sequences of segments of the protein predicted to be intracellular or intracellular-facing. Basic residues are highlighted in red. (B) Recording from an excised inside-out patch of membrane taken from a HEK-293 cell over-expressing TASK-2. The patch was held at −60 mV in the presence of 1 mM ATP. At the intervals indicated by the boxes the intracellular aspect of the membrane was exposed to 300 μM Neomycin and then to 100 μM TPeA. At the end of the TPeA period the patch was additionally exposed to 1 mM MTSET as shown by the black box. (C and D) experiments as in (B), but with inside-out membrane patches obtained from cells expressing the mutants TASK-2-H327C and TASK-2-K297C respectively. In D the reducing agent DTT was also added at 2 mM. (E) Summary of experiments comparing the current before and after treatment with MTSET.
Mus musculus TASK-2 (GenBank accession No. AF319542) plasmid was that obtained from mouse kidney. The cDNAs was subcloned into the pCR3.1 vector. Mutations were made by site-directed mutagenesis into the pCR3.1 vector as previously described[69] and confirmed by sequencing. HEK-293 cells were cultured in Dulbecco’s modified Eagle’s medium (DMEM) and F12 Ham’s medium at a 1:1 ratio and supplemented with 10% fetal calf serum at 37 °C in 5% CO2. For electrophysiological experiments, transient transfections were performed by electroporation, using CD8 cotransfection to identify effectively transfected cells. […] Experiments were performed 4–8 h after electroporation. […]
as §2

[4] abbreviates: 1 mM, in the presence of TPeA, inside-out patch.

Where a chain is given by its changes, count along the chain named.

With `C[N+](C)(C)CCSS(C)(=O)=O.[Cl-]` [MTSET, [2-(trimethylammonium)ethyl] methanethiosulfonate chloride], the “Effect of MTSET on TASK-2-R4C activity” value in assay [1] (setting [4]) was “not affected”. The figures for the MTSET effect entry in assay [1] (mutation R4C), in assay [2] (mutation K254C) and in assay [3] (mutation K297C) were “—”, “✓” and “✓”, respectively. The “Effect of MTSET on TASK-2-K254C activity” value in assay [2] (setting [4]) is listed as “significantly activated”. The “Effect of MTSET on TASK-2-K297C activity” value in assay [3] (setting [4]) is “markedly enhanced”.
